What all share (experiment): growth of human tumour cells (NCI), 48 h
In assay [1] the test system is HOP-62.
For assay [2], the system named is LOX IMVI.
For assay [3], the system named is MOLT-4.
The subject of assay [4] is UACC-62.
Assay [5] concerns A498.
Assay [6] deals with HOP-92.
Assay [7] deals with HL-60.
The test system of assay [8] is HCT-15.
Assay [9] deals with SNB-75.
Assay [10] relates to OVCAR-4.
The test system of assay [11] is HCC 2998.
In assay [12] the test system is SF-268.
Assay [13] deals with EKVX.
Assay [14] relates to Malme-3M.
For assay [15], the system named is NCI-H226.
The subject of assay [16] is SK-MEL-2.
In assay [17] the test system is M14.
The test system of assay [18] is NCI-H522.
The test system of assay [19] is UO-31.

The values that follow come from ChEMBL document CHEMBL1201862, “PubChem BioAssay data set” (2004).

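How tested: cells in 96-well plates exposed to compound for 48 hours at five concentrations. GI50 marks 50% less growth.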 Activity calls are given as the source filed them. Rule as the data show it: active = GI50 up to about 1.1 µM and inactive = higher.

In the case of `CC(C)N1CSC(=S)N(Cc2ccccc2)C1`, the GI50 in [1] was > 10 µM (inactive); in [2], 3.66 µM (inactive); in assay [3] it was 2.63 µM (inactive); in assay [4] it was 4.06 µM (inactive); in assay [5], > 10 µM (inactive); in [6], 2.84 µM (inactive). The GI50 was 0.197 µM (active) in assay [7]; 3.4 µM in [8]; 2.8 µM (inactive) in assay [9]; > 10 µM (inactive) in [10]; > 10 µM (inactive) in assay [11]; 4.38 µM (inactive) in assay [12]. Besides, in assay [13], the GI50 was > 10 µM (inactive).
With `N#C/C(=C\NC(=S)Nc1ccc(S(=O)(=O)Nc2ccccn2)cc1)C(N)=O`, the GI50 was > 100 µM (inactive) in assay [1]; > 100 µM (inactive) in [14]; > 100 µM (inactive) in assay [2]; > 100 µM (inactive) in assay [15]; 25.5 µM (inactive) in assay [3]; > 100 µM (inactive) in [16]. For the same compound, the GI50 in [4] was > 100 µM (inactive); in assay [5] it was > 100 µM (inactive); in assay [6], > 100 µM (inactive); in assay [17], > 100 µM (inactive); in assay [8], over 100 µM; in [18] it was > 100 µM (inactive). Moreover, the GI50 in [9] is 61.8 µM (inactive); in [10] it was > 100 µM (inactive); in assay [12] it was > 100 µM (inactive); in [19], > 100 µM (inactive); in assay [13], > 100 µM (inactive).
As to `CCOC(=O)C1=C(C)N(c2ccc(OC)cc2)C2(O)C=CC(O)=C3C(=O)c4ccccc4C(=O)C312` (stereo not drawn), the GI50 is 13.8 µM (inactive) in assay [1]; < 0.01 µM (active) in assay [14]; 7.16 µM (inactive) in assay [2]; 3.89 µM (inactive) in [3]; 16.3 µM (inactive) in assay [16]; 12.5 µM (inactive) in assay [4]. In addition, the GI50 in assay [5] was 10.5 µM (inactive); in [6], 2.25 µM (inactive); in assay [17], 9.75 µM (inactive); in [7], 5.93 µM (inactive); in [8] it was 6.71 µM; in [18], 2.57 µM (inactive). The GI50 is 2.99 µM (inactive) in assay [10], 2.13 µM (inactive) in assay [12], 13.9 µM (inactive) in assay [19] and 7.43 µM (inactive) in assay [13].
As to `CCOC(=O)c1cn(CC)c(=O)n2c1nc1ccccc12`, the GI50 in [1] is > 100 µM (inactive); in [2], 31.9 µM (inactive); in [15] it was 44.3 µM (inactive); in [3] it was 14.1 µM (inactive); in [16], > 100 µM (inactive); in assay [4] it was 57.5 µM (inactive). The GI50 in [5] was 32.4 µM (inactive); in [6], 30.1 µM (inactive); in assay [17] it was > 100 µM (inactive); in assay [8], 40.2 µM; in assay [9], > 100 µM (inactive); in assay [10], 35.3 µM (inactive). The GI50 in [11] was 96.8 µM (inactive); in [19] it was 3.48 µM (inactive); in assay [13], > 100 µM (inactive).
Regarding `Cc1[nH]n(C2=NCCN2)c(=O)c1Cc1ccccc1`, the GI50 in assay [1], in assay [14], in assay [2], in [15], in assay [3] and in [16] was > 100 µM (inactive) in each case. In addition, the GI50 is > 100 µM (inactive) in assay [4]; > 100 µM (inactive) in [5]; > 100 µM (inactive) in assay [6]; > 100 µM (inactive) in assay [17]; > 100 µM (inactive) in assay [7]; over 100 µM in assay [8]. The GI50 in [18], in [10], in assay [12], in assay [19] and in [13] was > 100 µM (inactive) in each case.
